According to patent US20240025884A1 (Dong-A ST Co., Ltd., priority 2022, published 2024):

Molecular target: GCN2 (Homo sapiens (Human), UniProt Q9P2K8)
Assay: GCN2 Biochemical Assay (TR-FRET, GFP-eIF2S1 substrate phosphorylation)
Details: read-out: IC50 (GCN2 Inhibitory Activity)
Summary of the method: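 TR-FRET readout (Ex 340, Em 490/520 nm) after 2–3 h with Tb-labelled phospho-eIF2S1 antibody in stop mix, following a 70 min room-temperature kinase step. Reaction: in-house GCN2, GFP-eIF2S1, ATP, tRNA in Tris pH 7.5 (2× stocks 1.6 nM, 50 nM, 0.2 mM); compounds tested at 10 concentrations, with a phospho-substrate artifact counter-plate.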

Sequence of GCN2 (Q9P2K8 whole entry): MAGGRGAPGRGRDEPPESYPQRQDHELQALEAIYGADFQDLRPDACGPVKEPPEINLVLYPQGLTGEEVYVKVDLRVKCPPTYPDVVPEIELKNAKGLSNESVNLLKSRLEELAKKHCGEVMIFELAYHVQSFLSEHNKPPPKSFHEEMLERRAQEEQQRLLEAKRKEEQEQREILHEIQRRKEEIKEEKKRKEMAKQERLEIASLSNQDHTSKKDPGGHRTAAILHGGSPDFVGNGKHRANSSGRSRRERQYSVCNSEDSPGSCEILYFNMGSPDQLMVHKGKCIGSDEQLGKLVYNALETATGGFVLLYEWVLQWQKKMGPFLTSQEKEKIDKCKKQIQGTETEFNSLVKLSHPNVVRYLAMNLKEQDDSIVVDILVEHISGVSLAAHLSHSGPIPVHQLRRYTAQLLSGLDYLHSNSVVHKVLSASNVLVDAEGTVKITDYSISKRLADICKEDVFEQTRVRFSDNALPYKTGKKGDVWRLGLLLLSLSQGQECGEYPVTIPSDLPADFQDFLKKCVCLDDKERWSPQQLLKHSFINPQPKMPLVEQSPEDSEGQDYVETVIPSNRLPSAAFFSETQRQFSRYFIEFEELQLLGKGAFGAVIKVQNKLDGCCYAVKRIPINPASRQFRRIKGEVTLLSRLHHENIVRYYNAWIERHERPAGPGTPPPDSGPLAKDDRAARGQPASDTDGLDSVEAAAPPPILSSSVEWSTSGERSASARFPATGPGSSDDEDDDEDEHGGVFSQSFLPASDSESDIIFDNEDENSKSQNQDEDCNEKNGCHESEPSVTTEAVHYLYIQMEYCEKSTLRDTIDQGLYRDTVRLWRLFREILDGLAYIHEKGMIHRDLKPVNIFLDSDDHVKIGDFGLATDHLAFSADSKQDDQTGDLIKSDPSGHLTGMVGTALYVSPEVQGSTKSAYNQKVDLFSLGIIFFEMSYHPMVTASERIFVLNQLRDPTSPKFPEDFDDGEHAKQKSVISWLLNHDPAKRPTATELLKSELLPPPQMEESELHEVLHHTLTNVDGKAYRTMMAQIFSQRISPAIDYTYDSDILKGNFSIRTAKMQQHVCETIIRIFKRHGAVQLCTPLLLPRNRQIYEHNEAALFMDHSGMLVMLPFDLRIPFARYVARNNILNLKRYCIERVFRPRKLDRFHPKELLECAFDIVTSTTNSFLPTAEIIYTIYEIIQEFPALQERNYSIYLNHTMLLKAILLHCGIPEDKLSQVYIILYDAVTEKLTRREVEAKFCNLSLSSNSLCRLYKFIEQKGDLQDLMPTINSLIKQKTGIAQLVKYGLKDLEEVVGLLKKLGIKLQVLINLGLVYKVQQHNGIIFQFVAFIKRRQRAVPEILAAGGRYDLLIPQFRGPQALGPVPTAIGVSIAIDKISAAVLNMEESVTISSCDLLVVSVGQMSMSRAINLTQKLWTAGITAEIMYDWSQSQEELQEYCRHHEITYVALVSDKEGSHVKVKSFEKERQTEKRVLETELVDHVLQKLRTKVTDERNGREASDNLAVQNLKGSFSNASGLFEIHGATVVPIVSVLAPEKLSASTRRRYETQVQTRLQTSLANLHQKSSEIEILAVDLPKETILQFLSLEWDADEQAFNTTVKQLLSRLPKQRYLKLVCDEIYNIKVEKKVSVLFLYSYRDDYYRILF

Row | Structure (SMILES) | IC50 [nM]
1 | Cc1cnc(Nc2cc(C)n(C)n2)nc1-c1c[nH]c2c(N3Cc4c(ccnc4-c4ccnc(F)c4)C3=O)cccc12 [Example 504, 2-(3-(2-((1,5-dimethyl-1H-pyrazol-3-yl)amino)-5-methylpyrimidin-4-yl)-1H-indol-7-yl)-4-(2-fluoropyridin-4-yl)-2,3-dihydro-1H-pyrrolo[3,4-c]pyridin-1-one] | < 10
2 | Cc1cncc(-c2nccc3c2CN(c2cccc4c(-c5nc(Nc6cc(C)n(C)n6)ncc5C)c[nH]c24)C3=O)c1 [Example 505, 2-(3-(2-((1,5-dimethyl-1H-pyrazol-3-yl)amino)-5-methylpyrimidin-4-yl)-1H-indol-7-yl)-4-(5-methylpyridin-3-yl)-2,3-dihydro-1H-pyrrolo[3,4-c]pyridin-1-one] | < 10
3 | Cc1cnccc1-c1nccc2c1CN(c1cccc3c(-c4nc(Nc5cc(C)n(C)n5)ncc4C)c[nH]c13)C2=O [Example 506, 2-(3-(2-((1,5-dimethyl-1H-pyrazol-3-yl)amino)-5-methylpyrimidin-4-yl)-1H-indol-7-yl)-4-(3-methylpyridin-4-yl)-2,3-dihydro-1H-pyrrolo[3,4-c]pyridin-1-one] | < 10

Results, then the compound that gave them:

Row | IC50 [nM] | Structure (SMILES)
4 | < 10 | Cc1cnc(Nc2cc(C)n(C)n2)nc1-c1c[nH]c2c(N3Cc4c(ccnc4-c4ccncc4)C3=O)cccc12 [Example 501, 2-(3-(2-((1,5-dimethyl-1H-pyrazol-3-yl)amino)-5-methylpyrimidin-4-yl)-1H-indol-7-yl)-4-(pyridin-4-yl)-2,3-dihydro-1H-pyrrolo[3,4-c]pyridin-1-one]
5 | < 10 | Cc1cc(-c2nccc3c2CN(c2cccc4c(-c5nc(Nc6cc(C)n(C)n6)ncc5C)c[nH]c24)C3=O)ccn1 [Example 502, 2-(3-(2-((1,5-dimethyl-1H-pyrazol-3-yl)amino)-5-methylpyrimidin-4-yl)-1H-indol-7-yl)-4-(2-methylpyridin-4-yl)-2,3-dihydro-1H-pyrrolo[3,4-c]pyridin-1-one]
6 | < 10 | Cc1cnc(Nc2cc(C)n(C)n2)nc1-c1c[nH]c2c(N3Cc4c(ccnc4-c4cncc(F)c4)C3=O)cccc12 [Example 503, 2-(3-(2-((1,5-dimethyl-1H-pyrazol-3-yl)amino)-5-methylpyrimidin-4-yl)-1H-indol-7-yl)-4-(5-fluoropyridin-3-yl)-2,3-dihydro-1H-pyrrolo[3,4-c]pyridin-1-one]
